Test results taken from the supplement of paper PMC10883282.

Tests used:
Experiment in all cases: relative viability vs DMSO control (72 h) (fraction); higher = more viable cells
A204 = tested on: A204
Method in brief: (§1)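 Plates held 72 h at 37 °C and 5% CO2 contained sarcoma cell lines seeded in 384-well format to reach 80–90% confluence, plus 2.5 µl of serially diluted compound added after 24 h. Source plate concentrations ran from 10 mM to 0.0002 mM, with 0.1% DMSO as vehicle and a 5 µM positive control. Percent growth from ATPLite readings, averaged over up to triplicate wells, gave relative viability. Values were rescaled with 1 as full and 0 as none.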

G401 = tested on: G401
Method in brief: as §1

HS729 = tested on: HS729
Method in brief: as §1

KHOS-240S = tested on: KHOS-240S
Method in brief: as §1

MES-SA = tested on: MES-SA
Method in brief: as §1

SK-ES-1 = tested on: SK-ES-1
Method in brief: as §1

SK-LMS-1 = tested on: SK-LMS-1
Method in brief: as §1

SW1353 = tested on: SW1353
Method in brief: as §1

SW684 = tested on: SW684
Method in brief: as §1

SW872 = tested on: SW872
Method in brief: as §1

SW982 = tested on: SW982
Method in brief: as §1

SYO-1 = tested on: SYO-1
Method in brief: as §1

CC(C)(C)c1nc(-c2cccc(NS(=O)(=O)c3c(F)cccc3F)c2F)c(-c2ccnc(N)n2)s1 [Dabrafenib]
Conditions | relative viability
A204, 0.00017 µM | 1
A204, 0.00051 µM | 1.04
A204, 0.00152 µM | 1.04
A204, 0.00457 µM | 1.04
A204, 0.01372 µM | 1.05
A204, 0.04115 µM | 0.978
A204, 0.1235 µM | 0.938
A204, 0.3704 µM | 0.843
A204, 1.111 µM | 0.76
A204, 3.333 µM | 0.69
A204, 10 µM | 0.614
G401, 0.00017 µM | 0.982
G401, 0.00051 µM | 0.994
G401, 0.00152 µM | 0.916
G401, 0.00457 µM | 0.937
G401, 0.01372 µM | 0.949
G401, 0.04115 µM | 0.955
G401, 0.1235 µM | 0.929
G401, 0.3704 µM | 0.857
G401, 1.111 µM | 0.768
G401, 3.333 µM | 0.781
G401, 10 µM | 0.814
HS729, 0.00017 µM | 0.958
HS729, 0.00051 µM | 0.949
HS729, 0.00152 µM | 0.867
HS729, 0.00457 µM | 0.85
HS729, 0.01372 µM | 0.84
HS729, 0.04115 µM | 0.844
HS729, 0.1235 µM | 0.774
HS729, 0.3704 µM | 0.659
HS729, 1.111 µM | 0.63
HS729, 3.333 µM | 0.683
HS729, 10 µM | 0.811
KHOS-240S, 0.00017 µM | 1.07
KHOS-240S, 0.00051 µM | 1.06
KHOS-240S, 0.00152 µM | 1.04
KHOS-240S, 0.00457 µM | 1.03
KHOS-240S, 0.01372 µM | 1.01
KHOS-240S, 0.04115 µM | 1
KHOS-240S, 0.1235 µM | 1.03
KHOS-240S, 0.3704 µM | 1.01
KHOS-240S, 1.111 µM | 0.975
KHOS-240S, 3.333 µM | 0.964
KHOS-240S, 10 µM | 0.854
MES-SA, 0.00017 µM | 0.944
MES-SA, 0.00051 µM | 0.921
MES-SA, 0.00152 µM | 0.908
MES-SA, 0.00457 µM | 0.905
MES-SA, 0.01372 µM | 0.909
MES-SA, 0.04115 µM | 0.883
MES-SA, 0.1235 µM | 0.733
MES-SA, 0.3704 µM | 0.53
MES-SA, 1.111 µM | 0.504
MES-SA, 3.333 µM | 0.744
MES-SA, 10 µM | 0.745
SK-ES-1, 0.00017 µM | 1.01
SK-ES-1, 0.00051 µM | 1.04
SK-ES-1, 0.00152 µM | 1
SK-ES-1, 0.00457 µM | 1.02
SK-ES-1, 0.01372 µM | 0.987
SK-ES-1, 0.04115 µM | 0.927
SK-ES-1, 0.1235 µM | 0.794
SK-ES-1, 0.3704 µM | 0.524
SK-ES-1, 1.111 µM | 0.368
SK-ES-1, 3.333 µM | 0.41
SK-LMS-1, 0.00017 µM | 1.07
SK-LMS-1, 0.00051 µM | 1.06
SK-LMS-1, 0.00152 µM | 1.05
SK-LMS-1, 0.00457 µM | 1.02
SK-LMS-1, 0.01372 µM | 0.964
SK-LMS-1, 0.04115 µM | 0.84
SK-LMS-1, 0.1235 µM | 0.7165
SK-LMS-1, 0.3704 µM | 0.586
SK-LMS-1, 1.111 µM | 0.607
SK-LMS-1, 3.333 µM | 0.691
SK-LMS-1, 10 µM | 0.557
SW684, 0.00017 µM | 1.13
SW684, 0.00051 µM | 1.09
SW684, 0.00152 µM | 1.129
SW684, 0.00457 µM | 1.18
SW684, 0.01372 µM | 1.13
SW684, 0.04115 µM | 1.12
SW684, 0.1235 µM | 1.13
SW684, 0.3704 µM | 1.025
SW684, 1.111 µM | 0.953
SW684, 3.333 µM | 1.09
SW684, 10 µM | 1.16
SW872, 0.00017 µM | 1.08
SW872, 0.00051 µM | 1.01
SW872, 0.00152 µM | 0.907
SW872, 0.00457 µM | 0.821
SW872, 0.01372 µM | 0.614
SW872, 0.04115 µM | 0.558
SW872, 0.1235 µM | 0.525
SW872, 0.3704 µM | 0.463
SW872, 1.111 µM | 0.412
SW872, 3.333 µM | 0.398
SW872, 10 µM | 0.334
SW982, 0.00017 µM | 1
SW982, 0.00051 µM | 0.988
SW982, 0.00152 µM | 0.974
SW982, 0.00457 µM | 0.886
SW982, 0.01372 µM | 0.85
SW982, 0.04115 µM | 0.779
SW982, 0.1235 µM | 0.701
SW982, 0.3704 µM | 0.469
SW982, 1.111 µM | 0.384
SW982, 3.333 µM | 0.369
SW982, 10 µM | 0.356
SW1353, 0.00017 µM | 1.02
SW1353, 0.00051 µM | 1.01
SW1353, 0.00152 µM | 0.957
SW1353, 0.00457 µM | 0.959
SW1353, 0.01372 µM | 0.9603
SW1353, 0.04115 µM | 0.936
SW1353, 0.1235 µM | 0.898
SW1353, 0.3704 µM | 0.875
SW1353, 1.111 µM | 0.859
SW1353, 3.333 µM | 0.89
SW1353, 10 µM | 0.988
SYO-1, 0.00017 µM | 0.985
SYO-1, 0.00051 µM | 0.9278
SYO-1, 0.00152 µM | 0.926
SYO-1, 0.00457 µM | 0.911
SYO-1, 0.01372 µM | 0.92
SYO-1, 0.04115 µM | 0.919
SYO-1, 0.1235 µM | 0.898
SYO-1, 0.3704 µM | 0.939
SYO-1, 1.111 µM | 0.857
SYO-1, 3.333 µM | 0.871
SYO-1, 10 µM | 0.816
